Test results taken from the NIST ThermoML archive (doi:10.1016/j.jct.2019.105891).

How the values were obtained:
[1] = 100 kPa, Liquid, Falling or rolling sphere viscometry
[2] = refractive index (Na D-line) (dimensionless); details: 100 kPa, Liquid, Standard Abbe refractometry
[3] = refractive index (Na D-line) (dimensionless); xn = mol fraction of the nth substance listed; details: 100 kPa, Liquid, Standard Abbe refractometry
[4] = xn = mol fraction of the nth substance listed; details: 100 kPa, Liquid, Falling or rolling sphere viscometry

CCCCn1cc[n+](C)c1.F[B-](F)(F)F [1-butyl-3-methylimidazolium tetrafluoroborate]
Details	refractive index, 293.15 K	refractive index, 303.15 K	refractive index, 313.15 K	refractive index, 323.15 K	viscosity, 293.15 K [mPa·s]	viscosity, 303.15 K [mPa·s]	viscosity, 313.15 K [mPa·s]	viscosity, 323.15 K [mPa·s]
[1]	–	–	–	–	135.7	80.4	51.4	34.92
[2]	1.42144	1.41913	1.41621	1.4133	–	–	–	–

CCCCn1cc[n+](C)c1.F[B-](F)(F)F [1-butyl-3-methylimidazolium tetrafluoroborate] + Nc1ccccc1
x1 = 1
Details	refractive index, 293.15 K	refractive index, 303.15 K	refractive index, 313.15 K	refractive index, 323.15 K	viscosity, 293.15 K [mPa·s]	viscosity, 303.15 K [mPa·s]	viscosity, 313.15 K [mPa·s]	viscosity, 323.15 K [mPa·s]
[3]	1.42144	1.41913	1.41621	1.4133	–	–	–	–
[4]	–	–	–	–	135.7	80.4	51.4	34.92

CCn1cc[n+](C)c1.F[B-](F)(F)F [1-ethyl-3-methylimidazolium tetrafluoroborate]
Details	refractive index, 293.15 K	refractive index, 303.15 K	refractive index, 313.15 K	refractive index, 323.15 K	viscosity, 293.15 K [mPa·s]	viscosity, 303.15 K [mPa·s]	viscosity, 313.15 K [mPa·s]	viscosity, 323.15 K [mPa·s]
[1]	–	–	–	–	45.69	30.54	21.82	16.42
[2]	1.41509	1.41117	1.40802	1.40512	–	–	–	–

CCn1cc[n+](C)c1.F[B-](F)(F)F [1-ethyl-3-methylimidazolium tetrafluoroborate] + Nc1ccccc1
x1 = 1
Details	refractive index, 293.15 K	refractive index, 303.15 K	refractive index, 313.15 K	refractive index, 323.15 K	viscosity, 293.15 K [mPa·s]	viscosity, 303.15 K [mPa·s]	viscosity, 313.15 K [mPa·s]	viscosity, 323.15 K [mPa·s]
[3]	1.41509	1.41117	1.40802	1.40512	–	–	–	–
[4]	–	–	–	–	45.69	30.54	21.82	16.42

Nc1ccccc1 [aniline]
Details	refractive index, 293.15 K	refractive index, 303.15 K	refractive index, 313.15 K	refractive index, 323.15 K	viscosity, 293.15 K [mPa·s]	viscosity, 303.15 K [mPa·s]	viscosity, 313.15 K [mPa·s]	viscosity, 323.15 K [mPa·s]
[1]	–	–	–	–	4.38	3.24	2.47	1.95
[2]	1.58481	1.58152	1.57823	1.57494	–	–	–	–

Nc1ccccc1 [aniline] + CCCCn1cc[n+](C)c1.F[B-](F)(F)F
Details	refractive index, [3]	viscosity, [4] [mPa·s]
293.15 K, x2 = 0	1.58481	4.38
293.15 K, x2 = 0.1001	1.55273	7.66
293.15 K, x2 = 0.4991	1.47256	36.82
293.15 K, x2 = 0.6032	1.45814	50.14
293.15 K, x2 = 0.7021	1.44443	65.33
293.15 K, x2 = 0.7907	1.43496	81.22
293.15 K, x2 = 0.9026	1.42669	104.99
303.15 K, x2 = 0	1.58152	3.24
303.15 K, x2 = 0.1001	1.54951	5.46
303.15 K, x2 = 0.4991	1.46852	22.05
303.15 K, x2 = 0.6032	1.4544	31.1
303.15 K, x2 = 0.7021	1.44151	40.82
303.15 K, x2 = 0.7907	1.43264	50.78
303.15 K, x2 = 0.9026	1.42433	66.19
313.15 K, x2 = 0	1.57823	2.47
313.15 K, x2 = 0.1001	1.54532	4.04
313.15 K, x2 = 0.4991	1.46448	14.67
313.15 K, x2 = 0.6032	1.45067	20.79
313.15 K, x2 = 0.7021	1.43859	26.92
313.15 K, x2 = 0.7907	1.43031	33.47
313.15 K, x2 = 0.9026	1.42197	42.66
323.15 K, x2 = 0	1.57494	1.95
323.15 K, x2 = 0.1001	1.54114	3.08
323.15 K, x2 = 0.2028	1.51499	4.56
323.15 K, x2 = 0.4991	1.46044	10.52
323.15 K, x2 = 0.6032	1.44694	14.73
323.15 K, x2 = 0.7021	1.43567	18.58
323.15 K, x2 = 0.7907	1.42799	23.06
323.15 K, x2 = 0.9026	1.41961	29.65
